# From paper PMC11794677, “Self‐Assembly of a Conjugate of Lipoic Acid With a Collagen‐Stimulating Pentapeptide Showing Cytocompatibility and Wound Healing Properties, and Chemical and Photolytic Disassembly” (Journal of Peptide Science, 2025)
# What was measured:
# [1] = tested on: type I/III collagen production by HDFa cells; test: Collagen quantification, picrosirius red (Direct red 80) staining; format: cell-based, Human; conditions: 72 h incubation, different concentrations, absorbance 490 nm, ANOVA, n = 3
# Experimental: To quantify collagen production, HDFa cells were seeded at a confluency of 1 × 10^4 cells/well into 96‐well plates in DMEM/F12 + 5 μg/mL of insulin and incubated for 3 days in DMEM/F12 without supplements as control, or DMEM/F12 + different concentrations of lipoyl‐KTTKS and conventional supplements (ascorbic acid 1 mM, TGFβ1 0.025 ng/mL and insulin 10 μg/mL). After incubation, the cells were washed three times with PBS and were fixed with cold ethanol 70%. The plate was transferred to a −80°C ultra‐freezer for 10 min and washed with water to remove any residual ethanol. After fixation, the collagen was incubated overnight in a solution containing Direct red 1 mg/mL in picric acid at 4°C. After this final incubation, the fixed cells were washed with distilled water to remove any residual dye, and the collagen and cells were then treated with 1‐mM NaOH for 10 min at room temperature. The resulting absorbance was measured at 490 nm using an Infinite F50 microplate reader (TECAN, Switzerland).
# Because of the great commercial interest in KTTKS pentapeptides in cosmetic products with proposed antiaging properties resulting from cellular matrix stimulation, collagen production assays were performed using the technique of picrosirius red (commercial name, Direct red 80) staining (UV/vis absorbance) measurements.
# [2] = Chemical reduction with TCEP, effect on self-assembled structures; format: physicochemical; conditions: 3 wt% with 2.6 wt% TCEP, SAXS and SANS; cryo-TEM 1 wt% + 0.37 wt% TCEP
# Excerpt: The ring‐opening of the lipoyl moiety can be achieved under reductive conditions. We examined the effect of chemical reduction on the self‐assembled structures of lipoyl‐KTTKS using TCEP [tris(2‐carboxyethyl)phosphine] as reductant. […] The SAXS data in Figure 3a show a considerable reduction in scattering intensity after addition of TCEP and the SANS profile in Figure 3b is barely above background after addition of TCEP. The SAXS data can be described using a form factor for monomer scattering with a power‐law intensity function at low q to account for a small fraction of irregular aggregates. The disruption of the fibrils upon TCEP addition was also confirmed by cryo‐TEM (images shown in Figure S1) because no aggregate structures were observed after addition of TCEP. Circular dichroism (CD) spectra shown in Figure 4 are characterized by a negative minimum in the CD spectrum at 196 nm along with the absence of defined features at higher wavelength, characteristic of a primarily disordered conformation. […] This is consistent with the observation that lipoyl‐KTTKS forms fibril‐like structures above a CAC detected by ThT binding to β‐sheet structure and as observed by cryo‐TEM, SAXS and SANS. […]
# HDFa cells = test: MTT cytocompatibility assay; format: cell-based, Human; conditions: 72 h incubation, concentrations up to 0.1 wt%, absorbance 560 nm, ANOVA, n = 3
# Experimental: For the cytocompatibility assays, HDFa cells were cultivated in DMEM/F12 supplemented with 5% FBS, Glutamax, penicillin/streptomycin 100 IU/mL and incubated at 37°C within an atmosphere of 5% CO2. The RAW cells were cultured in DMEM with 10% FBS, Glutamax, penicillin/streptomycin 100 IU/mL and maintained under the same conditions as the HDFa cells.
# To measure the cytocompatibility of lipoyl‐KTTKS, 24 h before the assay HDFa cells were cultivated in 96‐well plates with 1 × 10^4 cells/well with supplemented DMEM/F12. Then, the wells were washed three times with PBS, and cells were incubated for 72 h in media containing different concentrations of lipoyl‐KTTKS. After incubation, the cells were washed again three times with PBS and 100 μL of DMEM/F12 without phenol red + 5 μg/mL of MTT was added to each well. The plate containing cells in media containing MTT was incubated for 4 h inside an incubator at 37°C, protected from the light. After incubation, 100 μL of DMSO was added to each well to solubilize the resulting formazan crystals. The absorbance was measured at 560 nm using an Infinite F50 microplate reader (TECAN, Switzerland).
# [3] = SAXS form factor fits (core-shell cylinder, generalized Gaussian coil); format: physicochemical; note: values in Å
# Experimental: SAXS experiments were performed on beamline B21 [28] at Diamond (Didcot, UK). The sample solution was loaded into the 96‐well plate of an EMBL BioSAXS robot and then injected via an automated sample exchanger into a quartz capillary (1.8‐mm internal diameter) in the X‐ray beam. The quartz capillary was enclosed in a vacuum chamber, to avoid parasitic scattering. After the sample was injected into the capillary and reached the X‐ray beam, the flow was stopped during the SAXS data acquisition. Beamline B21 was operated with a fixed camera length (3.9 m) and fixed energy (12.4 keV). The images were captured using a PILATUS 2M detector. Data processing was performed using dedicated beamline software ScÅtter.
# Cryo‐TEM was used to probe potential aggregation in solution above the CAC (3 wt% aqueous solution). […] The presence of such structures was also confirmed by SAXS and SANS data (Figure 3), which reveal form factor features that can be fitted using a core‐shell cylinder form factor, consistent with extended fibril structures. The cylinder radius is 25 Å, which is approximately equal to the estimated length of the molecule considering the lipid chain plus a pentapeptide in a β‐sheet conformation. […] For the SAXS data, it was necessary to include a contribution in the fits from unaggregated peptide, which gives rise to scattering at high q, described using a generalized Gaussian coil form factor (generalized refers to allowing the Flory exponent for the coil to vary from the value ν = 0.5 for an unperturbed coil). SANS data for 3 wt% solutions of lipoyl‐KTTKS in D2O can be fitted to a core‐shell cylinder form factor, consistent with SAXS, with fit parameters listed in Table S1. It was not necessary to allow for unaggregated monomer in fitting the SANS data, which may be because of the higher background and/or altered scattering contrast compared with SAXS. The cylinder radius and shell thickness obtained from the fits to the SANS data are in excellent agreement with the parameters obtained from the SAXS fit.
# The ring‐opening of the lipoyl moiety can be achieved under reductive conditions. We examined the effect of chemical reduction on the self‐assembled structures of lipoyl‐KTTKS using TCEP [tris(2‐carboxyethyl)phosphine] as reductant. […] The SAXS data in Figure 3a show a considerable reduction in scattering intensity after addition of TCEP and the SANS profile in Figure 3b is barely above background after addition of TCEP. The SAXS data can be described using a form factor for monomer scattering with a power‐law intensity function at low q to account for a small fraction of irregular aggregates. The disruption of the fibrils upon TCEP addition was also confirmed by cryo‐TEM (images shown in Figure S1) because no aggregate structures were observed after addition of TCEP. Circular dichroism (CD) spectra shown in Figure 4 are characterized by a negative minimum in the CD spectrum at 196 nm along with the absence of defined features at higher wavelength, characteristic of a primarily disordered conformation. However, taking the difference between the CD spectra for lipoyl‐KTTKS without and with TCEP produces a spectrum (green spectrum in Figure 5) with a minimum near 215 nm, characteristic of β‐sheet structure. This is consistent with the observation that lipoyl‐KTTKS forms fibril‐like structures above a CAC detected by ThT binding to β‐sheet structure and as observed by cryo‐TEM, SAXS and SANS.
# Table S1. SANS and SAXS data fitted parameters. Data fitted using SASfit,^[1-2] using a long cylindrical shell form factor model, with allowance for monomers via a Generalized Gaussian coil factor for SAXS data. […]
# [4] = 3 wt%, long cylindrical shell form factor
# [5] = 3 wt%, long cylindrical shell form factor, listed as lipoyl-KTTKS
substance,measurement,setting,value
lipoyl‐KTTKS [peptide amphiphile comprising a conjugate of lipoic acid to pentapeptide KTTKS],Collagen production compared with the control or conventional stimulants,[1],no statistically significant increase
same,Effect of addition of TCEP on self-assembled structures,[2],disrupts the fibril structures
same,"Cytotoxicity (cell viability, MTT)",HDFa cells,does not present any statistically significant cytotoxicity
same,Rg radius of gyration (monomer),"[3]; 3 wt% with 2.6 wt% TCEP, generalized Gaussian coil form factor",6.3 Å
same,Rg radius of gyration (unaggregated peptide),"[3]; 3 wt%, generalized Gaussian coil form factor",22.0 Å
same,L length,[3]; [4],987 Å
same,Ro outer radius (Gaussian polydispersity ΔR),[3]; [4],25 Å
same,t shell thickness,[3]; [4],10 Å
same,Ro outer radius (Gaussian polydispersity ΔR),[3]; [5],25.0 ± 25.0 Å
same,t shell thickness,[3]; [5],10.0 Å
